± gives the expanded uncertainty stated by the source.
Assay: refractive index (Na D-line) (dimensionless)
Details: 298.15 K; 101.33 kPa; Liquid; Standard Abbe refractometry

SMILES | refractive index
CCCCCC [hexane] | 1.3728 ± 0.0005
CCCCCCCCCCCCCCCC [hexadecane] | 1.4325 ± 0.0005
Clc1ccc(Cl)c(Cl)c1 [1,2,4-trichlorobenzene] | 1.522 ± 0.0005
Clc1ccccc1Cl [1,2-dichlorobenzene] | 1.5491 ± 0.0005
Clc1ccccc1 [chlorobenzene] | 1.5218 ± 0.0005
Clc1cccc(Cl)c1 [1,3-dichlorobenzene] | 1.5432 ± 0.0005
CCCCCCCCCCCC [dodecane] | 1.4275 ± 0.0005

— the NIST ThermoML archive (doi:10.1021/je020107x)
